Assay type in all cases: cell-based
For assay [1], the system named is MDA-MB-231 cells. Description: Proliferation assay (RTCA). The following applies: MDA-MB-231, 300 nM, vs DMSO. Here is the method: (§1) MDA-MB-231 cells were seeded in 6-well cell culture plates and incubated overnight. The cells were treated with the selected protein kinase inhibitors and incubated overnight. Then they were reseeded onto the invasion chamber in serum-free media at a density of 2×10^4 cells per well using 16-well CIM-Plate in Real-Time Cell Analysis (RTCA) Dual Plate (DP) Analyzer (ACEA Bioscinece, California, USA) that was loaded inside the incubator. The lower chambers to which cells will migrate were prepared to contain chemoattractant consisted of 10% FBS. For invasion assays, Matrigel (BioCoat, BD Biosciences, MA) which resembles the complex extracellular environment found in many tissues was prepared and used to coat the upper chamber of CIM plates. Invasion and migration were monitored continuously over 72-hour period using RTCA Software (ACEA Bioscinece, California, USA). The RTCA Instrument automatically monitors the cells every 15 minutes for 100 repetitions. For proliferation assays, the same principle was applied using a single chamber containing complete DMEM media (FIG. 10).
(§2) Based on the dose-response curve, 330 nM was selected to be used as a standard dose for the experiments. In the invasion assay, MDA-MB-231 cells were treated with volasertib or DMSO for 24 hr, then invasion was monitored for 30 hr.

Assay [2] has as its system ARE-containing mRNAs (uPA, IL-8, SLC2A1, uPAR, CXCR4, MMP13, PDL1, HuR) in MDA-MB-231 cells. In words: RT-qPCR of ARE-containing cancer gene mRNAs. As to conditions: MDA-MB-231, 330 nM, 24 hr, vs DMSO. The procedure: Examples of the effect of several protein kinase inhibitors that were the outcome of the screen assay on one cancer gene, uPA, and a pro-inflammatory cytokine, IL-8 is given in FIG. 3.
These include IL-8, solute carrier family 2 member 1 (SLC2A1), uPA, uPAR, CXCR4, MMP13, PDL1, and HuR. The MDA-MB-231 cells were treated with 330 nM volasertib or DMSO for 24 hr, then quantitative RT-qPCR was performed in using FAM-labelled TaqMan probe of the above genes and normalized to GADPH (FIG. 11).
Cells were cultured in six-well plates and either treated with DMSO or drugs for 24 h. Total RNA was then extracted using Trizol reagent (TRI Reagent, Sigma-Aldrich, St Louis, Mo.). The cells were lysed directly on the culture dish by adding 1 ml of the TRI Reagent per 10 cm^2 surface area. […] The quantitative RT-QPCR was performed in multiplex in the Chroma 4 DNA Engine cycler (BioRad, Hercules, Calif., USA) using FAM-labelled TaqMan probes (Applied Biosystems, Foster City, Calif., USA) for TTP (ZFP36), HuR (ELAVL1), uPA (PLAU)-CXCR4, MMP-1, MMP-13, IL-8, PLK-1 while a VIC-labelled glyceraldehyde-3-phosphate dehydrogenase (GAPDH) probe was used as the endogenous control. Samples were amplified in triplicate and quantification of relative expression was performed using the estimation of quantitation cycle (Cq) method.

For assay [3], the system named is MDA-MB-231 cells. Description: RNAseq analysis of global gene expression. An excerpt:
mRNA was extracted from DMSO- or volasertib-treated […]. cDNA libraries were made for sequencing a measure of transcript copy numbers that correspond to the abundance of each gene (FIG. 6A). […] Among those is 170 ARE-coding genes as derived by crossing with AU-rich element database. (FIG. 6B).

Assay [4] concerns MDA-MB-231 cells. In words: Invasion assay (RTCA, Matrigel). The procedure: as §1, §2

With `CC[C@@H]1C(=O)N(C)c2cnc(Nc3ccc(C(=O)N[C@H]4CC[C@H](N5CCN(CC6CC6)CC5)CC4)cc3OC)nc2N1C(C)C` [volasertib], the proliferation entry in the assay with MDA-MB-231 cells [1] is reported as “significantly reduced”. Moreover, in assay [2], the “expression of all ARE-containing cancer genes (IL-8, SLC2A1, uPA, uPAR, CXCR4, MMP13, PDL1, HuR)” value is on record as “significantly reduced”. Further, the “number of ARE-coding genes among the down-regulated genes” value in the assay on MDA-MB-231 cells [3] (crossed with AU-rich element database) is recorded as 170 genes. For the same compound, in the assay with MDA-MB-231 cells [3] (p<0.001, vs DMSO), the “number of genes down-regulated by at least 1.7-fold” value stood at 540 genes. Besides, the invasive behavior entry in the assay on MDA-MB-231 cells [4] (MDA-MB-231 treated 24 hr, monitored 30 hr, vs DMSO) is listed as “reduced invasive behavior”. The “time at which the effect on invasion started” value in the assay on MDA-MB-231 cells [4] (after treatment) was determined as 6 h.
